From ChEMBL document CHEMBL3400065, “N10,N11-di-alkylamine indolo[3,2-b]quinolines as hemozoin inhibitors: design, synthesis and antiplasmodial activity” (Bioorg Med Chem, 2015)

How the values were obtained:
[1] = system: Plasmodium falciparum; assay: Antimalarial activity against ring stage Plasmodium falciparum W2 infected with human red blood cells incubated for 48 hrs by flow cytometry; type: functional, organism-based; conditions: W2, 48 h
[2] = system: Plasmodium falciparum; assay: Antimalarial activity against ring stage Plasmodium falciparum Dd2 infected with human red blood cells incubated for 48 hrs by SYBR Green method; type: functional; conditions: Dd2, 48 h
[3] = system: Plasmodium falciparum; assay: Antimalarial activity against ring stage Plasmodium falciparum 3D7 infected with human red blood cells incubated for 48 hrs by SYBR Green method; type: functional, organism-based; conditions: 3D7, 48 h
[4] = Cytotoxicity against human HepG2A16 cells by MTT assay; type: cell-based
[5] = Selectivity index, ratio of IC50 for human HepG2A16 cells to IC50 for ring stage Plasmodium falciparum W2; type: toxicity; conditions: read-out: Ratio IC50
[6] = n-octanol-phosphate buffer partition coefficient, log D in CH3CN-MeOH-phosphate buffer at pH 5.2 by HPLC-UV analysis; type: physicochemical
[7] = Inhibition of beta-hematin formation after 5 to 6 hrs by pyridine-ferrichrome detergent-mediated assay; type: physicochemical
[8] = n-octanol-phosphate buffer partition coefficient, log D in CH3CN-MeOH-phosphate buffer at pH 7.4 by HPLC-UV analysis; type: physicochemical
[9] = system: Plasmodium falciparum; assay: Resistance index, ratio of IC50 for ring stage Plasmodium falciparum W2 to IC50 for ring stage Plasmodium falciparum 3D7; type: functional
[10] = system: Plasmodium falciparum; assay: Resistance index, ratio of IC50 for ring stage Plasmodium falciparum Dd2 to IC50 for ring stage Plasmodium falciparum 3D7; type: functional
[11] = system: Plasmodium falciparum; assay: Ratio of chloroquine IC50 to compound IC50 for ring stage Plasmodium falciparum W2 infected with human red blood cells incubated for 48 hrs by flow cytometry; type: functional

Row | Compound | IC50 [1] [µM] | IC50 [2] [µM] | IC50 [3] [µM] | IC50 [4] [µM] | selectivity ratio [5] | logD [6] | IC50 [7] [µM] | logD [8] | Ratio IC50 [9] | Ratio IC50 [10] | Ratio IC50 [11]
1 | Clc1ccc2c(NCCCN3CCOCC3)c3c(nc2c1)c1ccccc1n3CCN1CCCC1 | 0.09 | 0.678 | 0.469 | 8.6 | 96 | 0.69 | 32.9 |  |  |  | 
2 | CCN(CC)CCCNc1c2ccc(Cl)cc2nc2c3cc(Cl)ccc3n(CCN3CCOCC3)c12 | 0.095 | 0.311 | 0.199 | 4.7 | 49 | 1.5 | 21.1 |  |  |  | 
3 | CCN(CC)CCCNc1c2ccc(Cl)cc2nc2c3ccccc3n(CCN3CCCC3)c12 | 0.087 | 0.455 | 0.48 | 4.5 | 52 | -0.03 | 21.9 | 1.48 |  |  | 
4 | Clc1ccc2c(NCCN3CCCC3)c3c(nc2c1)c1ccccc1n3CCN1CCCC1 | 0.099 | 0.631 | 0.468 | 4.6 | 46 | 0.34 | 79 | 2.7 |  |  | 
5 | CCN(CC)CCOc1cc(Cl)cc2nc3c4cc(Cl)ccc4n(CCN(CC)CC)c3cc12 |  |  |  | 5.3 | 212 |  |  |  | 0.3 | 0.3 | 
6 | CCN(CC)CCNc1c2ccc(Cl)cc2nc2c3cc(Cl)ccc3n(CCN3CCOCC3)c12 | 0.165 | 0.683 | 0.513 | 16.6 | 103 | 1.79 | 14.3 |  |  |  | 
7 | CCN(CC)CCNc1c2ccc(Cl)cc2nc2c3ccccc3n(CCN3CCCC3)c12 | 0.158 | 0.724 | 0.656 | 6.4 | 40 | 0.05 | 98.2 | 3.2 |  |  | 
8 | CCN(CC)CCCC(C)Nc1c2ccc(Cl)cc2nc2c3cc(Cl)ccc3n(CCN3CCCC3)c12 (centres undefined) | 0.126 | 0.706 | 0.456 | 6.5 | 52 | 0.26 | 10.8 |  |  |  | 
9 | CCN(CC)CCCNc1c2ccc(Cl)cc2nc2c3cc(Cl)ccc3n(CCN3CCCC3)c12 | 0.077 | 0.481 | 0.392 | 6 | 78 | 0.54 | 20.4 | 3.23 |  |  | 
10 | CCN(CC)CCCNc1c2ccc(Cl)cc2nc2c3ccccc3n(CCN3CCOCC3)c12 | 0.113 | 0.453 | 0.32 | 4.6 | 41 | 0.72 | 26.9 |  |  |  | 
11 | Clc1ccc2c(NCCN3CCCC3)c3c(nc2c1)c1cc(Cl)ccc1n3CCN1CCCC1 | 0.124 | 0.452 | 0.375 | 8.7 | 70 | 1.05 | 23.4 | 3 |  |  | 
12 | CCN(CC)CCNc1c2ccc(Cl)cc2nc2c3cc(Cl)ccc3n(CCN3CCCC3)c12 | 0.073 | 0.215 | 0.245 | 7.5 | 103 | 1 | 24.8 |  |  |  | 
13 | Clc1ccc2c(NCCCN3CCCCC3)c3c(nc2c1)c1ccccc1n3CCN1CCCC1 | 0.117 | 0.658 | 0.535 | 4.3 | 37 | -0.01 | 42.9 | 2.8 |  |  | 
14 | Clc1ccc2c(NCCCN3CCCCC3)c3c(nc2c1)c1cc(Cl)ccc1n3CCN1CCCC1 | 0.097 | 0.638 | 0.66 | 5.7 | 59 | 0.78 | 13.5 | 3.1 |  |  | 
15 | Clc1ccc2c(NCCCN3CCOCC3)c3c(nc2c1)c1cc(Cl)ccc1n3CCN1CCCC1 | 0.292 | 0.572 | 0.407 | 11.9 | 41 | 1.5 | 17.4 |  |  |  | 
16 | CCN(CC)CCCC(C)Nc1c2ccc(Cl)cc2nc2c3ccccc3n(CCN3CCCC3)c12 (centres undefined) | 0.02 | 0.314 | 0.245 | 2.5 | 125 | 0.1 | 7.9 | 0.6 |  |  | 10
17 | CCN(CC)CCCC(C)Nc1ccnc2cc(Cl)ccc12 (centres undefined) [CHLOROQUINE] |  |  |  |  |  |  | 28.2 |  |  |  | 
